Numbers after ± are expanded uncertainties.
Experiment: relative permittivity at zero frequency (dimensionless); xn = mol fraction of the nth substance listed
Settings: 100 kPa, Liquid, Dielectrometer

CC(C)CO [2-methyl-1-propanol] + CCC(C)O
relative permittivity at zero frequency
Settings	288.15 K	293.15 K	298.15 K	303.15 K	308.15 K
x2 = 0	19.51 ± 0.06	18.71 ± 0.06	17.96 ± 0.06	17.23 ± 0.06	16.53 ± 0.06
x2 = 0.0488	19.46 ± 0.06	18.66 ± 0.06	17.9 ± 0.06	17.17 ± 0.06	16.47 ± 0.06
x2 = 0.1011	19.41 ± 0.06	18.61 ± 0.06	17.85 ± 0.06	17.11 ± 0.06	16.4 ± 0.06
x2 = 0.1488	19.36 ± 0.06	18.55 ± 0.06	17.78 ± 0.06	17.05 ± 0.06	16.34 ± 0.06
x2 = 0.2005	19.31 ± 0.06	18.49 ± 0.06	17.72 ± 0.06	16.98 ± 0.06	16.27 ± 0.06
x2 = 0.2489	19.25 ± 0.06	18.43 ± 0.06	17.66 ± 0.06	16.92 ± 0.06	16.2 ± 0.06
x2 = 0.3013	19.2 ± 0.06	18.38 ± 0.06	17.59 ± 0.06	16.85 ± 0.06	16.13 ± 0.06
x2 = 0.3511	19.14 ± 0.06	18.31 ± 0.06	17.53 ± 0.06	16.78 ± 0.06	16.05 ± 0.06
x2 = 0.3993	19.09 ± 0.06	18.25 ± 0.06	17.46 ± 0.06	16.7 ± 0.06	15.97 ± 0.06
x2 = 0.4473	19.03 ± 0.06	18.19 ± 0.06	17.39 ± 0.06	16.63 ± 0.06	15.89 ± 0.06
x2 = 0.4984	18.98 ± 0.06	18.13 ± 0.06	17.32 ± 0.06	16.56 ± 0.06	15.81 ± 0.06
x2 = 0.5512	18.92 ± 0.06	18.06 ± 0.06	17.25 ± 0.06	16.48 ± 0.06	15.73 ± 0.06
x2 = 0.5999	18.87 ± 0.06	18 ± 0.06	17.18 ± 0.06	16.4 ± 0.06	15.65 ± 0.06
x2 = 0.649	18.81 ± 0.06	17.94 ± 0.06	17.1 ± 0.06	16.32 ± 0.06	15.56 ± 0.06
x2 = 0.7017	18.76 ± 0.06	17.88 ± 0.06	17.03 ± 0.06	16.24 ± 0.06	15.48 ± 0.06
x2 = 0.7502	18.71 ± 0.06	17.81 ± 0.06	16.96 ± 0.06	16.16 ± 0.06	15.39 ± 0.06
x2 = 0.7989	18.66 ± 0.06	17.75 ± 0.06	16.89 ± 0.06	16.08 ± 0.06	15.3 ± 0.06
x2 = 0.851	18.61 ± 0.06	17.69 ± 0.06	16.81 ± 0.06	16 ± 0.06	15.21 ± 0.06
x2 = 0.9003	18.56 ± 0.06	17.63 ± 0.06	16.74 ± 0.06	15.92 ± 0.06	15.12 ± 0.06
x2 = 0.9499	18.51 ± 0.06	17.57 ± 0.06	16.67 ± 0.06	15.83 ± 0.06	15.03 ± 0.06
